The results in this text go back to patent US20230115907A1, “HETEROCYCLIC COMPOUND AND PHARMACEUTICAL COMPOSITION, PREPARATION METHOD, INTERMEDIATE AND USE THEREOF” (EVOPOINT BIOSCIENCES CO., LTD., priority 2019, published 2023).

Usually IC50 stands for the point on the concentration scale where inhibition reaches its midpoint.

Experiment [1] relates to HCC70 cells. Description: Inhibition of cell proliferation, CellTiter-Glo, HCC70. Format: cell-based. The settings on record: Homo sapiens, HCC70, 72 h, Efficacy Example 2 (Table 2), 72 h incubation. The protocol:
(§1) The compounds were each prepared with 100% DMSO into 10 mM mother liquor.
(§2) HCC70 cells and OVCAR3 cells were digested and counted. Cells were diluted to an appropriate concentration according to cell density. 100 μL of cells were added to each well of a 96-well plate. Medium wells served as blank control (Min). The cells were incubated overnight in an incubator at 37° C./5% CO2.
(§3) A 200-fold stock solution of a compound was prepared with DMSO, and the compound was diluted with growth medium to a 3-fold stock solution, i.e., […] of each of 200-fold stock solutions of compound at different concentrations was added to 197 μL of medium. 50 μL of diluted compound was added to each well and the mixture was incubated at 37° C./5% CO2 for 72 h.
(§4) The 96-well plate was equilibrated to room temperature before detection. 40 μL of CellTiter-Glo solution was added to each well. The mixture was mixed for 2 min using a horizontal shaker to induce cell lysis. The mixture was incubated at room temperature for 60 min to stabilize […] signals. Fluorescence values were read on ENVISION.
(§5) (1) Data was analyzed by GraphPad Prism 5
(§6) (2) % inhibition rate=(maximum signal−compound signal)/(maximum signal−minimum signal)×100
(§7) (3) Maximum signal: signal of DMSO well
(§8) (4) Minimum signal: signal of medium well
(§9) The effect of SZ-015200, SZ-015256 and SZ-015268 on cell proliferation after incubation with HCC70, OVCAR-3, HCT116 and HCC1806 cells for 3 days was detected according to the method described in Efficacy Example 2, and the results are shown in Table 3.
(In general: ATP-based viability assays read luminescence as a measure of living cells.)

Experiment [2] relates to OVCAR3 cells. Nature of the experiment: Inhibition of cell proliferation, CellTiter-Glo, OVCAR3. Format: cell-based. The settings on record: Homo sapiens, OVCAR-3, 72 h, Efficacy Example 2 (Table 2), 72 h incubation. The procedure: as §1, §2, §3, §4, §5, §6, §7, §8, §9

Take `CC(C)c1cnn2c(NCc3ccccc3)cc(NC[C@H]3CCNC[C@@H]3O)nc12` [CT7001, reference compound]: the IC50 in experiment [1] came out at 310 nM; in experiment [2], 467 nM.

With `Cc1nc(NC2CCN(C(=O)O[C@H]3CCN(C(=O)/C=C/CN(C)C)C3)CC2)c2ncn(C(C)C)c2n1` [SZ-015264, (S,E)-1-(4-(dimethylamino)but-2-enoyl)pyrrolidin-3-yl 4-((9-isopropyl-2-methyl-9H-purin-6-yl)amino)piperidine-1-carboxylate], the IC50 in experiment [1] is 181 nM; in experiment [2], 234 nM.

Take `Cc1nc(NC2CCN(C(=O)O[C@@H]3CCN(C(=O)/C=C/CN(C)C)C3)CC2)n2ncc(C(C)C)c2n1` [SZ-015282, (R,E)-1-(4-(dimethylamino)but-2-enoyl)pyrrolidin-3-yl 4-((8-isopropyl-2-methylpyrazolo[1,5-a][1,3,5]triazin-4-yl)amino)piperidine-1-carboxylate]: the IC50 in experiment [1] turned out to be 82.4 nM; in experiment [2], 92.1 nM.

`CC#CC(=O)N1CC[C@@H](OC(=O)N2CCC(Nc3cc(C)nc4c3ncn4C(C)C)CC2)C1` [SZ-015284, (R)-1-(but-2-ynoyl)tetrahydropyrrol-3-yl 4-((3-isopropyl-5-methyl-3H-imidazo[4,5-b]pyridin-7-yl)amino)piperidine-1-carboxylate] had a 50% inhibitory concentration (IC50) in experiment [1] of 97.4 nM.

Take `CCn1cnc2c(NC3CCN(C(=O)O[C@H]4CCN(C(=O)/C=C/CN(C)C)C4)CC3)ccnc21` [SZ-015285, (S,E)-1-(4-(dimethylamino)but-2-enoyl)pyrrolidin-3-yl 4-((3-ethyl-3H-imidazo[4,5-b]pyridin-7-yl)amino)piperidine-1-carboxylate]: the values for the IC50 in experiment [1] and in experiment [2] were 1050 nM and 620 nM, respectively.

As to `CC(C)n1cnc2c(NC3CCN(C(=O)O[C@H]4CCN(C(=O)/C=C/CN(C)C)C4)CC3)ccnc21` [SZ-015286, (S,E)-1-(4-(dimethylamino)but-2-enoyl)pyrrolidin-3-yl 4-((3-isopropyl-3H-imidazo[4,5-b]pyridin-7-yl)amino)piperidine-1-carboxylate], the IC50 in experiment [1] was determined as 570 nM; in experiment [2], 167 nM.

`CC#CC(=O)N1CC[C@H](OC(=O)N2CCC(Nc3cc(C)nc4c3ncn4C(C)C)CC2)C1` [SZ-015289, (S)-1-(but-2-ynoyl)tetrahydropyrrol-3-yl 4-((3-isopropyl-5-methyl-3H-imidazo[4,5-b]pyridin-7-yl)amino)piperidine-1-carboxylate] came in with an IC50 in experiment [1] of 117 nM.

Turning to `CC#CC(=O)N1CC[C@H](OC(=O)N2CCC(Nc3nc(C)nc4c(C(C)C)cnn34)CC2)C1` [SZ-015294, (S)-1-(but-2-ynoyl)pyrrolidin-3-yl 4-((8-isopropyl-2-methylpyrazolo[1,5-a][1,3,5]triazin-4-yl)amino)piperidine-1-carboxylate], the IC50 is 50.2 nM in experiment [1] and 72.1 nM in experiment [2].

Take `CC[C@H](CO)Nc1nc(NC2CCN(C(=O)O[C@H]3CCN(C(=O)/C=C/CN(C)C)C3)CC2)c2ncn(C(C)C)c2n1` [SZ-015295, (S)-1-((E)-4-(dimethylamino)but-2-enoyl)pyrrolidin-3-yl 4-((2-(((R)-1-hydroxybutan-2-yl)amino)-9-isopropyl-9H-purin-6-yl)amino)piperidine-1-carboxylate]: the IC50 was 110 nM in experiment [1] and 62.8 nM in experiment [2].

`CC(C)n1cnc2c(NC3CCN(C(=O)O[C@H]4CCN(C(=O)/C=C/CN(C)C)C4)CC3)nc(-c3cn[nH]c3)nc21` [SZ-015298, (S,E)-1-(4-(dimethylamino)but-2-enoyl)pyrrolidin-3-yl 4-((9-isopropyl-2-(1H-pyrazol-4-yl)-9H-purin-6-yl)amino)piperidine-1-carboxylate]: the IC50 in experiment [1] came out at 405 nM.

Consider `Cc1nc(NC2CCN(C(=O)OC3CN(C(=O)/C=C/CN(C)C)C3)CC2)c2ncn(C(C)C)c2n1` [SZ-015308, (E)-1-(4-(dimethylamino)but-2-enoyl)azetidin-3-yl 4-((9-isopropyl-2-methyl-9H-purin-6-yl)amino)piperidine-1-carboxylate], for which the IC50 in experiment [1] is 92.1 nM. Compared with the last compound, the IC50 is about 4.4-fold lower.
